Reference: PMC9916883, “Betaine- and L-Carnitine-Based Ionic Liquids as Solubilising and Stabilising Agents for the Formulation of Antimicrobial Eye Drops Containing Diacerein” (International Journal of Molecular Sciences, 2023)
“Also recorded” adds a separate entry of the source.

Experiments:
[1] = Osmolality of eye drops (osmometer); type: physicochemical; conditions: eye drops in CB
Method: Male New Zealand albino rabbits weighing approximately 2.6-3 Kg, kept in standard housing conditions, were used for in vivo studies. The animals were treated as prescribed in the guidelines of the European Community Council Directive 2010/63. The animal protocol was approved by the Italian Ministry of University and Research (authorisation n. 192/2019-PR). The eye drops were prepared in CB (200 mOsm/kg). […] (588 mOsm/kg). A suspension of plain DIA (0.34 M) in CB was used as a reference sample (230 mOsm/kg). The samples' osmolality was checked using a Roebling osmometer (calibrated with NaCl 300 mOsm/kg H2O).

[2] = DIA elimination and degradation kinetics in tear fluid; type: in vivo, New Zealand albino rabbits; conditions: one drop (50 μL), 0.27 M IL, n = 10
Method: Male New Zealand albino rabbits weighing approximately 2.6–3 Kg, kept in standard housing conditions, were used for in vivo studies. The animals were treated as prescribed in the guidelines of the European Community Council Directive 2010/63. The animal protocol was approved by the Italian Ministry of University and Research (authorisation n. 192/2019-PR). The eye drops were prepared in CB (200 mOsm/kg). […] A suspension of plain DIA (0.34 M) in CB was used as a reference sample (230 mOsm/kg). The samples’ osmolality was checked using a Roebling osmometer (calibrated with NaCl 300 mOsm/kg H2O).
[…] CB was used as blank control. At predefined intervals (i.e., 2, 4, 6, 8, 10, 15, 20, 25, and 30 min from instillation), tear fluid samples were taken from the lower margin strip using 1 µL disposable glass capillaries (Microcaps, Drummond Scientific Co., USA), which were washed with 1 µL and diluted with 100 µL of CB. The diluted samples were analysed by HPLC. […] For each of the three formulations studied, elimination curves were constructed, each determined from a single eye of different rabbits.

S. aureus W4 [3] = experiment: Killing assay; type: cell-based, Staphylococcus aureus; conditions: 3 h incubation in 5% TSB; DIA 0.34 M, ILs 0.27 M
Method: To this end, the bacterial strains were grown in TSB until the exponential phase, and approximately 5 × 10^4 CFU/mL-contained in 10 μL-was added to 5 μL of TSB, 35 μL of water, and 50 μL of one of the following solutions corresponding to the eye drop compositions tested in vivo: Bet6 or Carn6 with 0.27 M or 0.34 M DIA, plain DIA (0.34 M) solution, or plain Bet6/plain Carn6, both at 0.27 M. All solutions were prepared in CB. The samples were incubated at 37 °C with shaking for 3 h. A sample containing 0.6% DMSO (corresponding to the highest concentration of DMSO tested) was used as a control. Following incubation, the samples were diluted 10-fold in LB and plated on tryptone soy agar (TSA, Oxoid) to determine the number of CFU. Bactericidal activity was defined as a reduction of at least 3 Log10 in the number of viable bacteria as compared to the inoculum.

P. aeruginosa ATCC 27853 = experiment: Biofilm inhibition assay (crystal violet); type: cell-based, Pseudomonas aeruginosa; conditions: any of the concentrations tested (3.12, 6.25, 12.5 μg/mL)
Method: (§1) After overnight growth in LB, cultures of P. aeruginosa ATCC 27853 and S. aureus W4 were diluted 1:100 in LB or in 50% tryptone soy broth (TSB, Oxoid) supplemented with 0.25% glucose (Sigma), respectively. The bacterial suspensions were dispensed into flat-bottomed polystyrene 96-well microplates (Corning Costar, Lowell, MA, USA) in the presence of sub-MIC concentrations of Rhe and DIA (3.12, 6.25, and 12.5 μg/mL). A sample containing 0.8 DMSO % (corresponding to the highest concentration of DMSO tested) was used as a control. The microplates were incubated statically at 37 °C for 24 h, and the biofilm biomass was estimated by CV (Sigma-Aldrich) staining assay, as previously described.

[4] = Modified Draize test (ocular irritation); type: in vivo, New Zealand albino rabbits; conditions: single eye drop instillation, rabbit; observed 0.5-6 h
Method: Male New Zealand albino rabbits weighing approximately 2.6-3 Kg, kept in standard housing conditions, were used for in vivo studies. The animals were treated as prescribed in the guidelines of the European Community Council Directive 2010/63. The animal protocol was approved by the Italian Ministry of University and Research (authorisation n. 192/2019-PR). The eye drops were prepared in CB (200 mOsm/kg). […] (588 mOsm/kg). A suspension of plain DIA (0.34 M) in CB was used as a reference sample (230 mOsm/kg). The samples' osmolality was checked using a Roebling osmometer (calibrated with NaCl 300 mOsm/kg H2O). To assess the irritation of the rabbits' eyes after instillation of the eye drops under study, a modified Draize test was performed, following the procedure previously described in [50]. This irritation test was conducted using a 0 (absence) to 3 (maximum) clinical rating scale for lachrymation, oedema, and conjunctival redness. For each of the samples under study, the test was performed on three rabbits, through a single instillation of the eye drops (50 μL) per rabbit eye, while the untreated contralateral eye was used as a control. […] An overall irritation index (Iirr) was calculated by adding the total clinical evaluation scores for each observation time. A score of 2 or 3 in any category or an Iirr greater than 4 was considered an indicator of clinically significant irritation.

S. aureus W4 [5] = experiment: Biofilm inhibition assay (crystal violet); type: cell-based, Staphylococcus aureus; conditions: any of the concentrations tested (3.12, 6.25, 12.5 μg/mL)
Method: as §1

osmolality [1]: 230 mOsm/kg | MRT ([2]; male, New Zealand albino, topical, 50 µL (one drop) of 0.34 M DIA, DIA in rabbit tear fluid): 4.55 min | AUC (DIA concentration in tear fluid vs time) ([2]; rabbit tear fluid, 0.34 M DIA): 0.06 ± 0.002
Compound: CC(=O)Oc1cccc2c1C(=O)c1c(OC(C)=O)cc(C(=O)O)cc1C2=O [DIA, diacerein]
bactericidal effect (S. aureus W4 [3]): no evident bactericidal effect | biofilm formation (CV staining, OD 570 nm), difference vs control (P. aeruginosa ATCC 27853): not statistically significant | ocular irritation signs (conjunctival redness, chemosis/oedema, secretion) [4]: modest redness of the conjunctiva and a slight conjunctival chemosis, but no secretion; also recorded: No redness, secretions, or conjunctival oedema | biofilm formation (CV staining, OD 570 nm) (S. aureus W4 [5]): no significant effects
